Three compounds from patent publication US8288549B2, “Glycine B antagonist” (Merz Pharma GmbH & Co. KGaA, priority 2008, dated 2012) can be followed below.

The target in data set [1] is T1, NMDA receptor glycine B site (Rattus norvegicus, UniProt P35439).
T1 construct: Hippocampi are then isolated from the brains of at least 8 embryos after decapitation; endogenous in cells; host or cells: primary cultured hippocampal neurons from E20 Sprague-Dawley rat embryos, 11-15 DIV
Description: Whole cell patch-clamp recordings in cultured rat hippocampal neurons (NMDA/D-Serine evoked currents). The class given is cell-based. Particulars: NMDA (200 μM) and D-Serine (1 μM), holding potential −70 mV, read-out: NMDA-PC-r-HIC-NAM - IC50. As for the experimental part: Antagonistic potencies of the test compounds are functionally evaluated using electrophysiological whole cell patch-clamp recordings and/or fluorometric intracellular Ca^2+-imaging (FLIPR) screens.
Cell preparation is performed as described by Parsons, et al. (Neuropharmacology, 1998, 37(6), 719-727). The female Sprague-Dawley rat is anaesthetised by placing in a saturated CO2-euthanasia chamber under further quiet CO2-influx. Under these conditions the rat loses consciousness after a few seconds and is then sacrificed by cervical dislocation. After opening the abdominal cavity, embryos (E20) are removed and stored in ice cold Ca^2+- and Mg^2+-free Hank's Buffered Salt Solution (pH 7.3), containing 4 g/l glucose (HBSS-CMF). Hippocampi are then isolated from the brains of at least 8 embryos after decapitation, transferred into ice cold HBSS-CMF and washed 3 to 4 times.
Hippocampi are pre-incubated for 8 min with a 0.66% trypsin (Sigma-Aldrich) and 0.1% (20 U/ml) DNAase solution (Sigma-Aldrich) in Ca^2+-free Phosphate Buffered Saline (PBS-CF) and washed 3 times with HBSS-CMF. Cells are then mechanically dissociated by trituration in a PBS-CF solution containing 0.05% (10 U/ml) DNAase and 0.3% of the trypsin inhibitor ovomucoid (all from Sigma-Aldrich). The cells are then centrifuged at 180×g for 10 minutes, and the cell pellet re-suspended in basal Minimum essential medium (MEM, Invitrogen, Karlsruhe, Germany), again carefully triturated to ensure maximal dissociation and finally plated in the flexiPERM inserts (Thermo Fisher Scientific, Langenselbold, Germany) at a density of 15×10^3 cells/cm^2 (0.5 ml/insert) onto poly-DL-ornithine (Sigma) and mouse laminin (Invitrogen) pre-coated plastic petri dishes. After 1 hour the cells become attached to the bottom of the dish and the inserts may be removed. The cells are then nourished with 2 ml MEM supplemented with 5% foetal calf serum (FCS) and 5% horse serum and incubated at 37° C. with 95% air and 5% CO2 at 95% humidity. After 4 days in vitro (DIV) further glial mitosis is inhibited by adding 10 μl of AraC (5 μM endconcentration). The medium is completely exchanged after an additional 2 DIV and again, but only partly (50%), after 8 DIV. The cells are used for electrophysiological recordings after 11-15 DIV.
Cells are visualised using an inverted microscope and selected for patching based upon their position and morphology. Voltage clamp recordings are made in the whole cell configuration of the patch clamp technique at a holding potential of −70 mV with the aid of an EPC-10 amplifier in combination with pipette manipulator. Patch clamp pipettes are pulled from borosilicate glass using a horizontal puller (P-97 Puller, Sutter Instruments, USA) and, when filled with intracellular solution, have resistances of 1-4 MΩ.
Solutions are delivered via a home-made gravity driven very fast perfusion system (<10 ms) including valves to switch flow on and off in combination with a stepper motor-driven double-barreled theta glass application pipette in order to expose cells to either agonist-free or agonist-containing solutions in presence or absence of antagonist.
The intracellular solution used consists of: 120 mM CsCl, 10 mM EGTA, 1 mM MgCl2, 200 μM CaCl2, 10 mM glucose and 22 mM tetraethyl ammonium chloride (TEA-CL). The corresponding extracellular bath solution contains: 140 mM NaCl, 3 mM KCl, 10 mM glucose, 10 mM HEPES, 1.5 mM CaCl2 and 4.5 mM sucrose (all from Sigma-Aldrich) pH 7.3, and is supplemented with 0.3 μM tetrodotoxin (TTX, Tocris, Bristol, U.K.) to block voltage-activated sodium channels and 0.25 μM bicuculline (Sigma-Aldrich) to block GABAA receptors. […]
Background: In patch-clamp work, channel activity is measured electrically.

In data set [2] the target is T2, glycine binding pocket of the NMDA receptor (Rattus norvegicus, UniProt P35439).
T2 construct: The cortex is dissected out and processed as described by Parsons, et al; from tissue; host or cells: rat cerebral cortex membranes (male Sprague-Dawley)
Description: [3H]-MDL-105,519 displacement studies on rat cortical membranes. The following applies: displacement of 2 nM [3H]-MDL-105,519, rat cortical membranes, 4° C., 1 h; read-out: NMDA-MDL 105519-r-CTX - IC50. As for the experimental part:
[^3]MDL-105,519 Displacement Studies
For the evaluation of the binding affinity of the test compounds on the glycine binding pocket of the NMDA receptor, [^3H]-MDL-105,519 (GE Healthcare, Freiburg, Germany) displacement studies are performed using a 96-well plate robotic platform. MDL-105,519 (Baron et al., J Pharmacol Exp Ther 1996, 279(1), 62-68; Baron et al., European Journal of Pharmacology, 1997, 323(2-3), 181-192; Hoffner & Wanner, Neuroscience Letters, 1997, 226(2), 79-82) is a selective, high affinity antagonist at the NMDA receptor glycine site.
Tissue preparation is performed according to Foster & Wong (Br J Pharmacol, 1987, 91, 403-409) with some modifications. Anaesthetised male Sprague-Dawley rats (200-250 g, Janvier, Le Genest-Isle, France) are decapitated and their brains removed rapidly. The cortex is dissected out and processed as described by Parsons, et al. (J Pharmacol Exp Ther, 1997, 283(3), 1264-1275). For isolation of the cell membranes, the cortices are homogenized in 20 volumes of ice-cold 0.32 M sucrose (Sigma-Aldrich, Taufkirchen, Germany) using a glass-Teflon homogenizer. The homogenate is centrifuged at 1000×g for 10 minutes, the pellet is discarded and the supernatant centrifuged at 20,000×g for 20 minutes. The resulting pellet is re-suspended in 20 volumes of distilled water and centrifuged for 20 minutes at 8000×g. The supernatant and the buffy coat are then centrifuged three times (48,000×g for 20 minutes) in the presence of 50 mM Tris-HCl, pH 8.0 (assay buffer). All centrifugation steps are carried out at 4° C. After resuspension in 5 volumes of 50 mM Tris-HCl, pH 7.5, the membrane suspension is frozen rapidly at −80° C. On the day of assay, the membranes are thawed and washed four times by resuspension in 50 mM Tris-HCl, pH 7.5, and centrifugation at 48,000×g for 20 minutes. The final pellet is suspended in assay buffer. The amount of protein in the final membrane preparation is determined according to the method of Lowry, et al. (J. Biological Chemistry, 1951, 193, 256-275) with some modifications (Hartree, Analytical Biochemistry, 1972, 48, 422-427). The final protein concentration used for our studies is 400 μg/ml.
A robotic system designed for binding assays (Tecan Deutschland GmbH, Crailsheim, Germany) is loaded with the membrane solution, solutions for bound control (buffer/DMSO 20%), unlabeled glycine (1 mM) for evaluation of non-specific binding, all compounds to be tested (at 20-fold concentrations), radioligand and respective 96-well plates.
Before performing displacement studies, saturation experiments are performed to determine the equilibrium dissociation constant (Kd) of [^3H]-MDL-105,519, which is a parameter for the affinity of the radioligand to the binding site. The protein/receptor concentration is held constant whereas the amount of specific bound radioligand is determined using increasing concentrations of ligand.
On the basis of the saturation experiments, a final [^3H]-MDL-105,519 concentration of 2 nM is selected. Firstly, the assay plates are loaded with membrane solution and are shaken at 4° C. The mother plates are then prepared by pipetting the compounds (n=4) into assay buffer/20% DMSO to obtain the desired final concentrations. After transferring radioligand into the assay plates, the compounds are added (including the bound and the non-specific binding control). The final DMSO concentration is 1%. The assay plates are incubated and shaken at 4° C. for 1 h, before the mixture is exhausted as rapidly as possible via a vacuum manifold using the Multiscreen HTS glass fibre (type B) filter plates (Millipore, Schwalbach, Germany) under a constant vacuum of 450 mbar. The membranes are washed four times with cold assay buffer (100 μL). […]

The term IC50 denotes the concentration that gives 50% inhibition. The melting point is the temperature, or range, at which the solid turns liquid. The compound `O=C(O)c1cc2cc(Br)cc(Br)c2nc1NC(Cc1ccccc1)C(=O)O` (stereo not shown) [Example 56, 6,8-Dibromo-2-(1-carboxy-2-phenyl-ethylamino)-quinoline-3-carboxylic acid] registered a melting point of 115 to 117 °C. The IC50 in data set [1] was 1240 nM. Further, the half-maximal inhibitory concentration (IC50) in data set [2] came out at 1730 nM.

Take `O=C(O)c1cc2cc(Cl)ccc2nc1NC(Cc1c[nH]c2ccc(F)cc12)C(=O)O` (stereo not shown) [Example 25, 2-[1-Carboxy-2-(5-fluoro-1H-indol-3-yl)-ethylamino]-6-chloro-quinoline-3-carboxylic acid]: the 50% inhibitory concentration (IC50) in data set [1] was found to be 930 nM; in data set [2] it was 2120 nM.

On to `O=C(O)c1cc2cc(Cl)ccc2nc1N[C@@H](Cc1ccc(O)c([N+](=O)[O-])c1)C(=O)O` [Example 41, 2-[(S)-1-Carboxy-2-(4-hydroxy-3-nitro-phenyl)-ethylamino]-6-chloro-quinoline-3-carboxylic acid], for which the half-inhibitory concentration (IC50) is 1030 nM in data set [1] and 1870 nM in data set [2].
